Values quoted from earlier work as cited in patent publication US5696156A, “Triterpene derivatives with immunosuppressant activity” (Merck & Co. Inc., priority 1996, dated 1997).

System: Kv 1.3 channels
Settings: stated for the reference blocker that defines the efflux window

## margatoxin (TIINVKCTSPKQCLPPCKAQFGQSAGAKCMNGKCKCYPH; UniProt P40755 1-39, looked up)
  IC50: 0.1 nM
